Data published in patent US20090170869A1, “PIPERAZINE DERIVATIVE HAVING AFFINITY FOR THE HISTAMINE H3 RECEPTOR” (priority 2007, published 2009).

Key:
[1] = molecular target: T1, brain histamine H3 receptor (Rattus norvegicus, UniProt Q9QYN8); experiment: Rat ex vivo binding studies - rat brain histamine H3 receptor occupancy ([3H]-R-α-methylhistamine); type: in vivo; conditions: for inhibition of [3H]-R-α-methylhistamine specific binding to the H3 receptor (surrogate for rat brain H3 receptor occupancy): 10 mg/kg oral; for specific binding of [3H]-R-α-methylhistamine to the H3 receptor: rats n=3, 10 mg/kg oral, mean ± SEM
T1 construct: from tissue; host or cells: cerebral cortex homogenate of adult male Lister hooded rats
Protocol: Ex vivo binding studies were carried out to determine brain histamine H3 receptor occupancy in rats at certain time points after oral administration of a test compound.
Adult male rats (Lister hooded 200-250 g, Charles River, UK) received vehicle (1% w/v aqueous methylcellulose) (control) or the test compound (10 mg/kg) by oral gavage (n=3 per group) and were sacrificed 1 or 4 hours following oral dosing. The 1 hour and 4 hour studies were not necessarily done on the same day. Terminal blood samples were collected and brains rapidly removed. Cerebral cortex tissue was dissected from half of each brain for ex vivo binding; the other half brain can be used for pharmacokinetic analysis of brain concentrations of each compound. All dissected tissue samples were snap-frozen in liquid nitrogen, and stored at −80° C. until use. The tissues were rapidly thawed and homogenised in approximately 30 volumes of ice cold assay reaction buffer. The assay reaction buffer contained 50 mM Tris-HCl (made up using Trizma pre-set crystals pH 7.7 @25° C., Sigma cat. No. T8068-250G) and 5 mM EDTA, with a final buffer pH of 7.2 to 7.8, usually about 7.4. The crude homogenate (600-800 μg/well) was then used to measure H3 receptor binding using [^3H]-R-α-methylhistamine as radioligand. Assays measuring total binding of [^3H]-R-α-methylhistamine consisted of 50 μl assay reaction buffer, 400 μl of homogenate (corresponding to 600-800 μg/well) and 50 μl of 2 nM R(−)α-Methyl[imidazole-2,5(n)-3H]histamine dihydrochloride ([^3H]-R-α-methylhistamine; specific activity, 24 Ci mmol^−1, Amersham Biosciences, catalogue no. TRK1017). Incubations with [^3H]-R-α-methylhistamine were for 45 min at 30° C. Non-specific binding of [^3H]-R-α-methylhistamine was determined in parallel using the same assay except that 50 μl of 10 μM imetit (an H3 receptor agonist, e.g. available from Tocris) was used instead of the 50 μl of assay reaction buffer. The experiments were terminated by rapid filtration through Whatman GF/B filters (pre-soaked in 0.3% v/v polyethyleneimine (PEI)), and then the filters were washed through with 4×5 ml of ice cold harvesting buffer. The harvesting buffer contained 50 mM Tris-HCl (from Trizma pre-set crystals pH 7.7 @ 25° C.) and 5 mM MgCl2, with a final buffer pH of 7.2 to 7.8, usually about 7.4. Filters were dried and added to vials each containing 4 ml Ultima Gold MV scintillation fluid (Hewlett Packard) and radioactivity determined by liquid scintillation spectrometry using a Packard Tri-Carb 2500TR liquid scintillation counter.
Specific binding of [^3H]-R-α-methylhistamine to the H3 receptor was determined by the subtraction of the value obtained for non-specific binding from the value obtained for total binding.
Protein concentrations were determined using the Bradford assay method (Bio-Rad
Protein Assay Dye Reagent Concentrate, catalogue no. 500-0006; from Bio-Rad Laboratories GmbH, Heidemannstrasse 164, 80939 Muenchen, Germany; or from Bio-Rad, York, UK) with bovine serum albumin as a standard. Specific radioactivity in the samples was corrected for protein (i.e. per microgram of protein).
The specific binding of [^3H]-R-α-methylhistamine to the H3 receptor is expressed as a mean (n=3 rats)±SEM (standard error of the mean), as a percentage of vehicle-treated control animals. Data is also expressed as inhibition of [^3H]-R-α-methylhistamine specific binding to the H3 receptor, as a surrogate measure for H3 receptor occupancy by the test compound, calculated as 100% minus the % mean specific binding of [^3H]-R-α-methylhistamine to the H3 receptor.

[2] = Plasma clearance in the pig-PET study; type: in vivo; conditions: Yorkshire-Landrace, iv, 50 ug/kg, 50 micrograms/kg i.v.
H3 receptor = H3 receptor (Sus scrofa, UniProt A0A287B9V8); experiment: Pig-PET study with [11C]GSK189254: pig brain H3 receptor occupancy over time and kon-koff limited model; conditions: 50 micrograms/kg i.v.; for Measured H3 receptor occupancy @ 10 min: 10 minutes post administration; for Measured H3 receptor occupancy @ 2.5 h: 2.5 hours post administration; for Measured H3 receptor occupancy @ 6 h: 6 hours post administration; for Kd: Kd (koff/kon)
male Sprague Dawley rats = experiment: Toxicity Study 1: 7-day oral repeat-dose study in male Sprague Dawley rats; type: in vivo, rat; conditions: for tolerability: male rats
Protocol: Three male rats were added at each non-zero dose level for toxicokinetic evaluation. All doses and concentrations, including analyte concentration in plasma, are expressed in terms of the parent “free base” compound.
The following endpoints/parameters were evaluated for toxicology animals: clinical observations, body weights, food consumption measurements, selected haematology and selected clinical chemistry results, liver weights, selected macroscopic and microscopic observations, and selected hepatic gene expression analysis. Toxicokinetic evaluation (serial profiling) was performed on samples collected from satellite animals on Days 1 and 7. For male rats dosed at 30 or 100 mg/kg/day, histopathology observations carried out were on kidneys, mesentery and mandibular lymph node only. For male rats dosed at 0 mg/kg/day (control) and 300 mg/kg/day, histopathology observations carried out were on adrenals, brain, heart, kidneys, liver, lung, mandibular lymph node, mesentery, stomach, testes, and thymus (except that mandibular lymph node observations were for 0 mg/kg/day dosed rats only).

Sprague Dawley rats = experiment: Toxicity Study 2: 7-day oral dose range-finding study in Sprague Dawley rats; type: in vivo, rat
Protocol: Three male rats and three female rats were added at 600 mg/kg/day and 3 female rats were added at 300 mg/kg/day for toxicokinetic evaluation.
The following endpoints/parameters were evaluated for toxicology animals: clinical observations, body weights, food consumption, selected haematology, selected clinical chemistry, liver weights, and selected macroscopic and microscopic observations. Toxicokinetic evaluation was performed on samples collected on Day 1 (300 and 600 mg/kg/day dosing) and Day 7 (300 mg/kg/day dosing only).

[3] = mean ± standard deviation, n=3 pigs
[4] = rat, in vivo, po, 300 mg/kg/day

T1 sequence (Q9QYN8 whole entry): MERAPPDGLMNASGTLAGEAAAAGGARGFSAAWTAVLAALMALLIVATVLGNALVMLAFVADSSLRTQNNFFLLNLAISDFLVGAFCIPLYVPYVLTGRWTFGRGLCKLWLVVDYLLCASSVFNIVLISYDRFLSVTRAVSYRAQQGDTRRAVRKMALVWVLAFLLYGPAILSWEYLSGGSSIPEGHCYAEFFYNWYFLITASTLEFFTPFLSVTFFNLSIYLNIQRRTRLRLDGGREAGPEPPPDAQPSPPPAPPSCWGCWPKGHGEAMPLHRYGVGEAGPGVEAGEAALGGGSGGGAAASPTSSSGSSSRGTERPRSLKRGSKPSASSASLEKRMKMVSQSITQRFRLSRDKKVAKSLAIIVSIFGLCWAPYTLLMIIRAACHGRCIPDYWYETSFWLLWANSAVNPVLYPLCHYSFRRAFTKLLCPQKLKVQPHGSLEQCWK
Chain of H3 receptor (A0A287B9V8 1-448): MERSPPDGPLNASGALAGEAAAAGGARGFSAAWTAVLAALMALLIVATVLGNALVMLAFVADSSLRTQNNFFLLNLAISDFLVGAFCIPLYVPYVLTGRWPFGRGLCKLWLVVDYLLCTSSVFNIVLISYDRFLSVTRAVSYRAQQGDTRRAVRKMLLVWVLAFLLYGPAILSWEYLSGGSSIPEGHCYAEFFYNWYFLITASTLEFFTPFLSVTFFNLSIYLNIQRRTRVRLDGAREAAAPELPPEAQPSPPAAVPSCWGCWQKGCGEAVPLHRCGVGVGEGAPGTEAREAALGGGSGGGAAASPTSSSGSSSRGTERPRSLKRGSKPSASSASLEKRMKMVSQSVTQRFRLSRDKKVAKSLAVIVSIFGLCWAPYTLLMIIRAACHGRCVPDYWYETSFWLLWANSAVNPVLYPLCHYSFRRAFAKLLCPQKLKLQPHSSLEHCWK

SMILES: CC(C)N1CCN(C(=O)c2ccc(OC3CCOCC3)cc2)CC1.Cl [Example E1]
- inhibition of [3H]-R-α-methylhistamine specific binding to the H3 receptor (surrogate for rat brain H3 receptor occupancy) ([1]; 1 hour after dosing): about 60%
- inhibition of [3H]-R-α-methylhistamine specific binding to the H3 receptor (surrogate for rat brain H3 receptor occupancy) ([1]; 4 hours after dosing): about 16%
- specific binding of [3H]-R-α-methylhistamine to the H3 receptor ([1]; sacrificed 1 hour after dosing): 40%+2%
- specific binding of [3H]-R-α-methylhistamine to the H3 receptor ([1]; sacrificed 4 hours after dosing): 84%+6%
- clearance ([2]; average model (from average plasma data)): 38.3 mL/min
- clearance ([2]; mean of pigs 1-3): 41.7 mL/min
- clearance ([2]; pig 1): 48.3 mL/min
- clearance ([2]; pig 2): 50 mL/min
- clearance ([2]; pig 3): 30 mL/min
- reduction in pig brain H3 receptor occupancy as compared to salt B (H3 receptor; n=3 pigs, preliminary measurements): generally faster reduction
- Measured H3 receptor occupancy @ 10 min (H3 receptor; [3]): 58% ± 4%
- Measured H3 receptor occupancy @ 10 min (H3 receptor; pig 1): 61%
- Measured H3 receptor occupancy @ 10 min (H3 receptor; pig 2): 54%
- Measured H3 receptor occupancy @ 10 min (H3 receptor; pig 3): 58%
- Measured H3 receptor occupancy @ 2.5 h (H3 receptor; [3]): 30% ± 11%
- Measured H3 receptor occupancy @ 2.5 h (H3 receptor; pig 1): 43%
- Measured H3 receptor occupancy @ 2.5 h (H3 receptor; pig 2): 24%
- Measured H3 receptor occupancy @ 2.5 h (H3 receptor; pig 3): 22%
- Measured H3 receptor occupancy @ 6 h (H3 receptor; [3]): 14% ± 14%
- Measured H3 receptor occupancy @ 6 h (H3 receptor; pig 1): 30%
- Measured H3 receptor occupancy @ 6 h (H3 receptor; pig 2): 7%
- Measured H3 receptor occupancy @ 6 h (H3 receptor; pig 3): 5%
- Kd (H3 receptor; average model (from average plasma data and average occupancy)): 9.14 nM
- Kd (H3 receptor; mean of pigs 1-3): 9.08 nM
- Kd (H3 receptor; pig 1, in vivo PK/RO model): 4.47 nM
- Kd (H3 receptor; pig 2, in vivo PK/RO model): 9.35 nM
- Kd (H3 receptor; pig 3, in vivo PK/RO model): 13.4 nM
- tolerability (male Sprague Dawley rats; 300 mg/kg/day oral for 7 days (measured as free base)): moderately well tolerated
- tolerability (male Sprague Dawley rats; 30 or 100 mg/kg/day oral for 7 days (measured as free base)): well tolerated
- food consumption (male Sprague Dawley rats; [4]): ca. 0.80 × pretreatment
- periarterial inflammatory cell infiltrate in the hilar region of the kidneys (male Sprague Dawley rats; [4]): minimal in severity, was noted in the hilar region of the kidneys of all four male rats
- tolerability (Sprague Dawley rats; conclusion from Toxicity Studies 1 and 2: male and female rats, 7 days oral, doses up to 300 mg/kg/day): well tolerated or moderately well tolerated
- tolerability (Sprague Dawley rats; female rats, 300 mg/kg/day oral for 7 days (measured as free base)): moderately well tolerated
- tolerability (Sprague Dawley rats; male or female rats, 600 mg/kg/day oral (only 2 days)): not tolerated
- certain haematology and other clinical chemistry parameters (Sprague Dawley rats; [4]): increased
- clinical signs (Sprague Dawley rats; [4]): chewing movements, rubbing chin on the cage floor, and certain other clinical signs
- glandular dilation of the fundic region of the stomach (Sprague Dawley rats; [4]): of minimal severity, was observed in most female rats
